Results: the supplement of paper PMC10307832

Key:
Assay in all cases: relative viability (nuclei count vs DMSO), 5 days (fraction); higher = more cells survive
Tozasertib + Dasatinib = compound: Cc1cc(Nc2cc(N3CCN(C)CC3)nc(Sc3ccc(NC(=O)C4CC4)cc3)n2)n[nH]1 [Tozasertib] + Cc1nc(Nc2ncc(C(=O)Nc3c(C)cccc3Cl)s2)cc(N2CCN(CCO)CC2)n1 [Dasatinib] (partner 0.075 µM)
Outline: (§1)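 One day after seeding in 1536-well plates, lung cancer cell lines were dosed by pin tool. Dosing was either single-drug or a fixed anchor-drug dose plus five library-drug doses (not always all listed) in √10 steps. After 5 days, nuclei were stained in one fix-and-stain step and counted on 4× images, and relative viability is the nuclei count of treated wells over that of vehicle wells, given as the median of duplicate plates.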

Tozasertib + Olaparib = compound: Cc1cc(Nc2cc(N3CCN(C)CC3)nc(Sc3ccc(NC(=O)C4CC4)cc3)n2)n[nH]1 [Tozasertib] + O=C(c1cc(Cc2n[nH]c(=O)c3ccccc23)ccc1F)N1CCN(C(=O)C2CC2)CC1 [Olaparib] (partner 8 µM)
Outline: as §1

Tozasertib + Bortezomib = compound: Cc1cc(Nc2cc(N3CCN(C)CC3)nc(Sc3ccc(NC(=O)C4CC4)cc3)n2)n[nH]1 [Tozasertib] + CC(C)C[C@H](NC(=O)[C@H](Cc1ccccc1)NC(=O)c1cnccn1)B(O)O [Bortezomib] (partner 0.002 µM)
Outline: as §1

Tozasertib + AZD7762 = compound: Cc1cc(Nc2cc(N3CCN(C)CC3)nc(Sc3ccc(NC(=O)C4CC4)cc3)n2)n[nH]1 [Tozasertib] + NC(=O)Nc1cc(-c2cccc(F)c2)sc1C(=O)N[C@H]1CCCNC1 [AZD7762] (partner 0.2 µM)
Outline: as §1

Tozasertib + Trametinib = compound: Cc1cc(Nc2cc(N3CCN(C)CC3)nc(Sc3ccc(NC(=O)C4CC4)cc3)n2)n[nH]1 [Tozasertib] + CC(=O)Nc1cccc(-n2c(=O)n(C3CC3)c(=O)c3c(Nc4ccc(I)cc4F)n(C)c(=O)c(C)c32)c1 [Trametinib] (partner 0.02 µM)
Outline: as §1

Cell Line | relative viability (Tozasertib + Dasatinib; first compound 0.004 µM) | relative viability (Tozasertib + Dasatinib; first compound 0.01265 µM) | relative viability (Tozasertib + Dasatinib; first compound 0.04 µM) | relative viability (Tozasertib + Dasatinib; first compound 0.1265 µM) | relative viability (Tozasertib + Olaparib; first compound 0.004 µM) | relative viability (Tozasertib + Olaparib; first compound 0.01265 µM) | relative viability (Tozasertib + Olaparib; first compound 0.04 µM) | relative viability (Tozasertib + Olaparib; first compound 0.1265 µM) | relative viability (Tozasertib + Bortezomib; first compound 0.004 µM) | relative viability (Tozasertib + Bortezomib; first compound 0.01265 µM) | relative viability (Tozasertib + Bortezomib; first compound 0.1265 µM) | relative viability (Tozasertib + AZD7762; first compound 0.004 µM) | relative viability (Tozasertib + AZD7762; first compound 0.01265 µM) | relative viability (Tozasertib + AZD7762; first compound 0.04 µM) | relative viability (Tozasertib + AZD7762; first compound 0.1265 µM) | relative viability (Tozasertib + Trametinib; first compound 0.004 µM) | relative viability (Tozasertib + Trametinib; first compound 0.01265 µM) | relative viability (Tozasertib + Trametinib; first compound 0.04 µM) | relative viability (Tozasertib + Trametinib; first compound 0.1265 µM) | relative viability (Tozasertib + Bortezomib; first compound 0.04 µM)
NCI-H1666 | 0.793 | 0.71 | 0.803 | 0.554 | 0.717 | 0.727 | 0.729 | 0.705 | 0.772 | 0.748 | 0.434 | 0.941 | 0.761 | 0.903 | 0.671 | 0.79 | 0.86 | 0.863 | 0.727 | 
NCI-H838 | 0.304 | 0.307 | 0.225 | 0.256 | 0.814 | 0.752 | 0.815 | 0.386 | 0.757 | 0.801 | 0.281 | 0.881 | 0.971 | 0.925 |  | 0.528 | 0.453 | 0.657 | 0.246 | 1.32
NCI-H2347 | 0.344 |  | 0.262 | 0.281 | 0.528 | 0.616 | 0.697 | 0.582 | 1.18 | 0.961 | 0.658 | 0.686 | 0.686 | 0.835 | 0.75 | 0.279 | 0.299 | 0.317 | 0.256 | 1
